Measured values reported in article PMC5513091, “A novel Alzheimer’s disease drug candidate targeting inflammation and fatty acid metabolism” (Alzheimer's Research & Therapy, 2017).
Like-named read-outs stand apart in the source and are kept apart here.

Experiments:
MC65 = test: Aβ toxicity (intracellular); format: cell-based, human; conditions: read-out: Half-maximal effective concentration, Aβ toxicity (intracellular)
Description: The various phenotypic screening assays were conducted as previously described. Briefly, HT-22, primary cortical neurons, or MC65 was plated and exposed to the different environmental stresses. Cells were treated with varying concentrations of CAD-31, and half-maximal effective concentration (EC50) was determined on the basis of cell viability.
• An assay that mimics the dramatic loss of neurotrophic support in the old brain is the trophic factor withdrawal assay. Primary embryonic day 18 cortical cells are plated at low density in serum-free medium. At low density, the cells die within 2 days; they can be rescued by combinations of neurotrophic growth factors, but not by one alone ([19] and unpublished data). […] BDNF is a molecule that is also involved in promoting memory and neurogenesis and is reduced in the brain with age and in AD, as well as in other neurological disorders. BDNF has long been considered a drug target for AD [23]. […] A reduction in GSH is a common denominator of old age and essentially all chronic central nervous system (CNS) diseases. J147 and CAD-31 both effectively reduce oxidative stress, with EC50 of 6 nM and 20 nM, respectively. • CAD-31 also prevents loss of energy metabolism that leads to neuron cell death in an in vitro ischemia model. […] Intracellular Aβ toxicity was assayed in the human neuron cell line MC65 that conditionally expresses the C99 fragment of the amyloid precursor protein. When the cells are induced to make Aβ, the cells die within 4 days. Both J147 and CAD-31 block this toxicity at around 10 nM. Therefore, CAD-31 has a repertoire of neuroprotective activities similar but not identical to that of its parent compound, J147.

[1] = Free feeding CAD-31 plasma and brain levels in mice; format: in vivo
Description: Sprague-Dawley rats had free access to food and water. CAD-31 was given by gavage to rats at 20 mg/kg in corn oil and intravenously in 15% HS 15/PBS. Whole-blood samples were collected from the jugular vein at every time point and brain collected after 20-ml saline perfusion. CAD-31 was extracted with acetonitrile and compared with standards on a TSQ Quantiva™ Triple Quadrupole Mass Spectrometer (Thermo Scientific, Waltham, MA, USA). For the mouse feeding studies, mice had free access to food containing 200 ppm CAD-31. Blood was collected by heart puncture, and the brain concentration was determined as with rats.

CYP 2Cb = CYP 2Cb (Homo sapiens, UniProt P11712); test: CYP inhibition; format: in vitro ADME
CYP 2Cb, sequence (P11712 whole entry): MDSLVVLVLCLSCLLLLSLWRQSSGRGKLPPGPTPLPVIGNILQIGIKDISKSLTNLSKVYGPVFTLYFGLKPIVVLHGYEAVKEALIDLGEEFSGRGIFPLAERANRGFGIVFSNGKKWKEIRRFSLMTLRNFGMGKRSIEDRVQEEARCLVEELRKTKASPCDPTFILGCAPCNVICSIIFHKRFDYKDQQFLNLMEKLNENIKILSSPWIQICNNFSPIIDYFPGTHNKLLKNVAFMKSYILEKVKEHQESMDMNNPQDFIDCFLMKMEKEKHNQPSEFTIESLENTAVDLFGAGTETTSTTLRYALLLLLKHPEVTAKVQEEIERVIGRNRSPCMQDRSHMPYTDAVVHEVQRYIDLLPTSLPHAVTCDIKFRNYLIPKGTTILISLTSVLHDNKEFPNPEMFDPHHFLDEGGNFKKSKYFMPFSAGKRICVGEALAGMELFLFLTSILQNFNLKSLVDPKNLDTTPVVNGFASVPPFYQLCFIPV

APPswe/PS1∆E9 mice = test: Open-field assay; format: in vivo; conditions: old mice, 200 ppm in chow for 3 months; data not shown
[2] = system: APPswe/PS1∆E9 transgenic mice; test: Two-day water maze; format: in vivo; conditions: AD mice fed 200 ppm in chow for 3 months from 10 months of age; day 2
Description: The APPswe/PS1∆E9-transgenic mice were characterized previously. Line 85 mice carry two transgenes, the mouse/human chimeric APPswe, linked to Swedish familial AD and human PS1∆E9. At 10 months of age, female transgenic mice were fed a defined diet (Harlan Teklad; Envigo, Indianapolis, IN, USA) with and without CAD-31 (200 ppm, approximately 10 mg/kg/day). Treatment continued for 3 months, followed by behavior testing and tissue harvesting.
Spatial memory was determined using the 2-day water maze with 13-month-old APPswe/PS1∆E9 transgenic mice fed CAD-31 for the previous 3 months. The protocol was adapted from a publication by Gulinello and colleagues. The goal platform was positioned 45 cm from the outside wall in the northwest quadrant of the maze. Day 1 involved training the mice (n = 10 per group) to find the platform using cues located around the pool within a 180-second time frame. This training involved a series of visible platform trials where mice were tracked using EthoVision software (Noldus Information Technology, Leesburg, VA, USA). […] The time it took each mouse to find the hidden platform was measured as escape latency. All trials were recorded using the EthoVision software, and statistics were computed using InStat software (GraphPad Software, La Jolla, CA, USA) by an individual blinded to the experiment.

APPswe/PS1ΔE9 mice = system: APPswe/PS1ΔE9 mice; set-up: method as in PMID 27149904; conditions: old APPswe/PS1ΔE9 mice fed from an early age, preventive strategy; cited from earlier work
[3] = mice fed ad libitum, 200 ppm in chow (about 10 mg/kg/day)

Cc1ccc(N(/N=C/c2cccc(OC(F)(F)F)c2)C(=O)C(F)(F)F)c(C)c1 [CAD-31]
EC50 (MC65; Homo sapiens, MC65, MC65): ~10 nM | EC50 (MC65; MC65): 12 nM | maximum brain concentration, free-fed [1, 3]: 53 nM | maximum plasma concentration, free-fed [1, 3]: 82 nM | Free-Fed ~10 mg/kg/day Brain ([1]; mice, 200 ppm in food): 0.053 µM | Free-Fed ~10 mg/kg/day Plasma ([1]; mice, 200 ppm in food): 0.082 µM | EC50 at 10 µM (CYP 2Cb): > 10000 nM | open-field assay, overt toxicity (APPswe/PS1∆E9 mice): no differences between groups | escape latency, hidden platform trial T1 [2]: significantly reduces the escape latency relative to AD mice to control levels | division of NPCs in the subventricular zone (APPswe/PS1ΔE9 mice): stimulates the division of NPCs in the subventricular zone
